Results: article PMC8478281, “Targeting the FtsZ Allosteric Binding Site with a Novel Fluorescence Polarization Screen, Cytological and Structural Approaches for Antibacterial Discovery” (Journal of Medicinal Chemistry, 2021)
Values after ≈ are worked out from the molar mass of the structure shown. Where two headings read alike, the source gives them in different places.

Legend:
[1] = molecular target: T1, FtsZ-GMPCPP polymers (BsFtsZ) (Bacillus subtilis, UniProt P17865); assay: Binding titration of the fluorescent probes to FtsZ polymers by fluorescence anisotropy; settings: for Imax/Imin / rmax (all probe bound) / rmin (free probe) / Kd: FtsZ-GMPCPP polymers, best fit values from binding titrations
T1 construct: made in house
T1 sequence (P17865 whole entry): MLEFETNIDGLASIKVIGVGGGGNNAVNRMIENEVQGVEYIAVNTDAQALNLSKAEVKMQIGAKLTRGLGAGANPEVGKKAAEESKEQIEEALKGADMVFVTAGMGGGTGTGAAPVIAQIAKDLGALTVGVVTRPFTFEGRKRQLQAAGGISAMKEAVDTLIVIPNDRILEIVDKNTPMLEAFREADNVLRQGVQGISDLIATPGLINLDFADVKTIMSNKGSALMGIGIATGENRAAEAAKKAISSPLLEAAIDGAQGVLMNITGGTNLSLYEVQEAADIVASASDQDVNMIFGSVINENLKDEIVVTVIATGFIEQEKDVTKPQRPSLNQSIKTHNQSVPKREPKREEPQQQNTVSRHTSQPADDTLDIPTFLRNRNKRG
Procedure: (§1) FtsZ from B. subtilis (BsFtsZ) was prepared as described previously.[35] FtsZ was assembled in 50 mM N-(2-hydroxyethyl)piperazine-N′-ethanesulfonic acid (HEPES)-KOH, 50 mM KCl, 1 mM ethylenediaminetetraacetic acid (EDTA), pH 6.8 (HEPES buffer) plus 10 mM MgCl2, and 1 mM GTP or 0.1 mM GMPCPP at 25 °C. FtsZ assembly was monitored by light scattering.[34]
The fluorescence spectra and anisotropy values of the different probes were acquired with a Fluoromax-4 (Horiba Jobin Yvon) photon-counting L-format spectrofluorometer using 2 mm × 10 mm cells at 25 °C, employing the maximum excitation and emission wavelength for each probe with 2 and 5 nm bandwidths, respectively. Anisotropy values were automatically measured as r = (Ivv – G Ivh)/(Ivv + 2G Ivh), where the subscripts refer to the vertical (v) or horizontal (h) positions of the excitation (first subscript) and emission (second subscript) polarizers, and G = Ihv/Ihh. Total intensity values were simultaneously determined as IT = Ivv +2G Ivh. Note that measurement correction procedures with T-format (double channel) fluorometers and with plate readers are slightly different.
(§2) FtsZ (10–15 μM) was assembled in HEPES buffer, 10 mM MgCl2, 50 μM GMPCPP at 25 °C for 10 min, and then 0.15% (v/v) glutaraldehyde[36] (distilled grade for microscopy, TAAB Laboratories, U.K.) was added to the solution that was incubated at 25 °C for 10 min more. (This was the minimal glutaraldehyde concentration determined to stabilize FtsZ polymers specifically binding probe 1.) The remains of the cross-linking agent were quenched by adding 60 mM NaBH4, the sample was incubated on ice for 10 min and degassed.[36] Cross-linked polymers were centrifuged for 10 min at 8200g (5000 rpm) and 4 °C in 15 mL Falcon tubes employing a Rotina 380R (Hettich) centrifuge, the supernatant was removed and the pellet was resuspended in the same volume of HEPES buffer, 10 mM MgCl2, containing 5 μM GMPCPP. Fixed FtsZ polymers were active in binding assays after more than 2 days at 4 °C; they could also be frozen in liquid nitrogen with a small loss of binding capacity. […] Cross-linked polymers of SaFtsZ were similarly prepared.
Binding affinity of the probes to FtsZ was measured by an increase in anisotropy of the probe (adapted from ref ([49])). Fixed concentrations of the probes (3 μM) were titrated with different FtsZ polymer concentrations (0–40 μM) in HEPES buffer with Mg^2+, to obtain the anisotropy increment, Δrmax, corresponding to the bound probe. The increase in anisotropy was plotted against the FtsZ polymer concentration (calculated by subtracting from the total protein concentration the critical concentration for polymerization under the same conditions) and iteratively least-squares fitted with an isotherm of binding to one site. The estimated values of Δrmax were used to approximate the free FtsZ concentrations, and these new values were employed again until an unchanging Δrmax value was obtained. The convergent data were used to calculate the binding constant of the fluorescent probe to FtsZ polymers (Table S1).

BsFtsZ = molecular target: T2, BsFtsZ (Bacillus subtilis, UniProt P17865); assay: Fluorescence anisotropy of probes after consecutive additions of FtsZ, GMPCPP, MgCl2 and PC190723; format: binding; settings: for Fluorescence anisotropy (r): free probe: probe 10 μM in buffer; for Fluorescence anisotropy (r): + FtsZ (unassbld.) / Fluorescence anisotropy (r): + GMPCPP / Fluorescence anisotropy (r): + MgCl2 (polymer): probe 10 μM, FtsZ 10 μM; for Fluorescence anisotropy (r): + GMPCPP / Fluorescence anisotropy (r): + MgCl2 (polymer): GMPCPP 0.1 mM; for Fluorescence anisotropy (r): + MgCl2 (polymer): MgCl2 10 mM, 5–10 min
T2 construct: made in house
T2 sequence (P17865 whole entry): as above
Procedure: (A) Fluorescence anisotropy values of the free probes (10 μM) in buffer, to which FtsZ (10 μM, unassembled) was added, followed by the slowly hydrolyzable GTP analogue GMPCPP (0.1 mM). BsFtsZ polymerization was then induced by the addition of MgCl2 (10 mM) and anisotropy values were recorded 5–10 min later. Nonfluorescent PC190723 (10 μM) was subsequently added to displace the fluorescent probe and anisotropy was measured 5 min later. (B) Fluorescence microscopy images of B. subtilis cells treated for 1.5 h with the minimal division inhibitory concentrations (MDC) of (S)-2 and each enantiomer of 5 (Table S1), acquired employing the probe fluorescence.
as §1

B. subtilis [2] = assay: Minimal growth inhibitory concentration (broth macrodilution), B. subtilis; format: cell-based, Bacillus subtilis; settings: for MIC B. subtilis: Table S1, fluorescent probes; for MIC: Bacillus subtilis
Procedure: (§3) B. subtilis 168 and Staphylococcus spp. were grown in cation adjusted Mueller–Hinton broth (CAMHB; Becton, Dickinson and Company) at 37 °C. B. subtilis SU570 were grown in the same medium at 30 °C. In all cases, the cells were grown to an absorbance of 0.1–0.2 at 600 nm and then incubated either with the compounds or DMSO vehicle. Microscopy assays and cell measurement were performed as previously described.[31] MIC values were determined by a broth macrodilution method.[51] MBC values were determined as the lowest concentration of inhibitor at which there was a 99.9% reduction in colony-forming units/mL compared to the inoculum. To construct a S. aureus strain expressing FtsZ-mCherry, the plasmid pCN-ftsZmch[9] was electroporated into RN4220 and 0.1 μM cadmium chloride (Sigma-Aldrich) was used to induce the expression of the construct under the control of the Pcad promoter.

S. aureus Mu50 = assay: Minimal growth inhibitory concentration (broth macrodilution), S. aureus Mu50; format: cell-based, Staphylococcus aureus; settings: for MIC S. aureus Mu50: Table S1, fluorescent probes; for MIC: Staphylococcus aureus, MU50, read-out: MIC S. aureus Mu50
Procedure: as §3

B. subtilis [3] = assay: Minimal division inhibitory concentration and cell division phenotype, B. subtilis; format: cell-based, Bacillus subtilis; settings: for minimal effective concentration: Bacillus subtilis, read-out: MDC B. subtilis; for toxicity to the bacterial cells, in words: B. subtilis cell division tests
Procedure: as §3

[4] = Solubility in HEPES buffer with 2% DMSO, spectrophotometric; format: physicochemical; settings: HEPES buffer containing 2% DMSO, 25 °C, aqueous buffer, kinetic from dmso stock; HEPES buffer pH 6.8 containing 2% DMSO
Procedure: 3.2. Solubility of Compounds. Stock solutions of compounds were prepared in
DMSO (spectroscopic grade, Merck) a nd stored at -20 °C. Compound solubility in 50
mM HEPES-KOH, 50 mM KCl, 1 mM EDTA, pH 6.8 (HEPES buffer) containing 2%
DMSO was determined spectrophotometrically, monitoring the linear correlation
between the absorbance and the compound concentration and the absence of light
scattering. The solutions were optionally centrifuged at 100000 rpm for 20 min at 25 °C
in a TLA100 rotor with a Beckman Optima Max -XP ultracentrifuge.

[5] = molecular target: T3, stabilized polymers of FtsZ from B. subtilis (Bacillus subtilis, UniProt P17865); assay: Competition assay: displacement of probe (R)-5 from stabilized BsFtsZ-GMPCPP polymers; format: binding; settings: for Kd: stabilized polymers of FtsZ from B. subtilis, probe (R)-5, mean ± SEM, read-out: KD
T3 construct: made in house
T3 sequence (P17865 whole entry): as above
Procedure: as §2
Competition assays were performed by measuring, through the decrease in fluorescence anisotropy, the displacement of the fluorescent probes from stabilized FtsZ polymers. Increasing concentrations of competing ligands were added to the mixtures of cross-linked FtsZ polymers (10–15 μM) with probe 1 (3 μM), 7–8 μM FtsZ polymers with probe (S)-2 (3 μM), or 2–3 μM FtsZ polymers with (R)-5 (3 μM). HEPES buffer with 10 mM MgCl2 and 0.1 mM GMPCPP was employed, with a final volume of 0.5 mL, and the anisotropy measured at 25 °C. Under these conditions, the initial fraction of the probe bound was between 0.4 and 0.5. The fraction of the probe bound (Vb) was calculated [drawing 1] where rfree and rmax are the anisotropy values of the free and bound probes, respectively, and R is the ratio between the fluorescence intensities of the bound and free probe (Table S1). The binding data were plotted against the competing ligand concentration and fitted by competition equilibrium of the ligand and the probe for the same binding site. The resulting system of equations[50] was numerically solved using the Equigra v. 5.0 program,[33] which provided the best-fitted value of the competitor binding constant.

[6] = PC190723 10 μM added to the polymer, 5 min

Molecule | Fluorescence anisotropy (r): + PC190723 (BsFtsZ; [6]) | Fluorescence anisotropy (r): free probe (BsFtsZ) | Fluorescence anisotropy (r): + FtsZ (unassbld.) (BsFtsZ) | Fluorescence anisotropy (r): + GMPCPP (BsFtsZ) | Fluorescence anisotropy (r): + MgCl2 (polymer) (BsFtsZ) | minimal effective concentration (B. subtilis [3]) [µM] | solubility [4] [µM] | Kd [5] [µM] | MIC (B. subtilis [2]; read-out: MIC B. subtilis) [µM] | MIC (S. aureus Mu50) [µM] | also measured
CCC[C@@H](CNc1ccc([N+](=O)[O-])c2nonc12)Oc1ccc(F)c(C(N)=O)c1F [(S)-2] | 0.065 | 0.037 | 0.041 | 0.044 | 0.172 |  |  |  |  |  | Imax/Imin [1]: 2.4; rmax (all probe bound) [1]: 0.258; rmin (free probe) [1]: 0.028; Kd [1]: 8 ± 1 µM; MIC B. subtilis (B. subtilis [2]): 250 µM (≈ 105 µg/mL); MIC S. aureus Mu50 (S. aureus Mu50): > 250 µM
2,6-Difluoro-3-[(1-{[(7-nitro-2,1,3-benzoxadiazol-4-yl)amino]methyl}nonyl)-oxy]benzamide [Compound 4] | 0.324 | 0.045 | 0.130 | 0.186 | 0.317 |  |  |  |  |  | 
CCCC(COc1ccc(F)c(C(N)=O)c1F)Nc1ccc([N+](=O)[O-])c2nonc12 (stereo not drawn) [Compound 5, 2,6-Difluoro-3-{2-[(4-nitro-2,1,3-benzoxadiazol-7-yl)amino]pentoxy}benzamide] |  | 0.031 | 0.034 | 0.036 | 0.203 |  |  |  |  |  | Fluorescence anisotropy (r): + PC190723 (BsFtsZ; [PC190723] = 30 μM): 0.055
NC(=O)c1c(F)ccc(OCc2ccc(C(F)(F)F)cc2)c1F [Compound 21] |  |  |  |  |  | 25 | 100 (≈ 33.1 µg/mL) | 6.7 ± 0.4 | 50 (≈ 16.6 µg/mL) | 100 (≈ 33.1 µg/mL) | 
NC(=O)c1cccc(OCCCc2cccc(Cl)c2)c1 [Compound 13] |  |  |  |  |  | 25 | 25 (≈ 7.24 µg/mL) | 9.5 ± 0.5 | 100 (≈ 29 µg/mL) | > 100 | 
CCC[C@@H](COc1ccc(F)c(C(N)=O)c1F)Nc1ccc([N+](=O)[O-])c2nonc12 [(S)-5] | 0.038 | 0.030 | 0.042 | 0.041 | 0.096 |  |  |  |  |  | fold reduced affinity with respect to (R)-5 [1]: 8 fold; Imax/Imin [1]: 1.7; rmax (all probe bound) [1]: 0.178; rmin (free probe) [1]: 0.025; Kd [1]: 15 ± 2 µM; MIC B. subtilis (B. subtilis [2]): 250 µM (≈ 105 µg/mL); MIC S. aureus Mu50 (S. aureus Mu50): > 250 µM
CCCCCC(CNc1ccc([N+](=O)[O-])c2nonc12)Oc1ccc(F)c(C(N)=O)c1F (stereo not drawn) [Compound 3, 2,6-Difluoro-3-[(1-{[(7-nitro-2,1,3-benzoxadiazol-4-yl)amino]methyl}hexyl)oxy]benzamide] | 0.135 | 0.049 | 0.104 | 0.115 | 0.261 |  |  |  |  |  | 
CCC[C@H](CNc1ccc([N+](=O)[O-])c2nonc12)Oc1ccc(F)c(C(N)=O)c1F [(R)-2] | 0.051 | 0.037 | 0.046 | 0.050 | 0.081 |  |  |  |  |  | Imax/Imin [1]: 1.0; rmax (all probe bound) [1]: 0.067; rmin (free probe) [1]: 0.038; inhibition of B. subtilis cell division, in words (B. subtilis [3]): inactive; MIC B. subtilis (B. subtilis [2]): > 250 µM; MIC S. aureus Mu50 (S. aureus Mu50): > 250 µM
NC(=O)c1cccc(OCc2cccc(Cl)c2)c1 [Compound 11] |  |  |  |  |  | 50 | 100 (≈ 26.2 µg/mL) | 9.3 ± 0.5 | 50 (≈ 13.1 µg/mL) | > 100 | fold lower KD and MDC than 3-aminobenzamide analogue 6 [5]: more than 10 fold
CCCC(CNc1ccc([N+](=O)[O-])c2nonc12)Oc1ccc(F)c(C(N)=O)c1F (stereo not drawn) [Compound 2, 2,6-Difluoro-3-[(1-{[(7-nitro-2,1,3-benzoxadiazol-4-yl)amino]methyl}butyl)oxy]benzamide] | 0.053 | 0.037 | 0.039 | 0.046 | 0.157 |  |  |  |  |  | 
NC(=O)c1c(F)ccc(OCc2ccccc2C(F)(F)F)c1F [Compound 19] |  |  |  |  |  | > 100 | 50 (≈ 16.6 µg/mL) | 71 ± 6 | > 100 | > 100 | 
NC(=O)c1ccc(OCc2cccc(Cl)c2)cc1 [Compound 14] |  |  |  |  |  |  |  |  |  |  | toxicity to the bacterial cells, in words (B. subtilis [3]): toxic; MIC (B. subtilis [2]): > 500 µM
NC(=O)c1cccc(OCCc2cccc(Cl)c2)c1 [Compound 12] |  |  |  |  |  | 50 | ≥ 100 | 7.1 ± 0.5 | 100 (≈ 27.6 µg/mL) | > 100 | 
CCCN(Cc1cccc(Cl)c1)c1cccc(C(N)=O)c1 [Compound 8] |  |  |  |  |  |  | 5 (≈ 1.51 µg/mL) |  |  |  | toxicity to the bacterial cells, in words (B. subtilis [3]): toxic to the bacterial cells
